Results on two molecules are retold here after patent US7888355B2, “Compositions and methods for inhibiting growth and metastasis of melanoma” (Burnham Institute for Medical Research, priority 2007, dated 2011).

One data set concerns MeWO cells. Description: MeWO melanoma cell viability. It counts as cell-based, human. As to the method:
(§1) Cell lines. Mouse melanoma (SW1) and human melanoma (LU1205) cells were maintained in DMEM supplemented with 10% FBS, L-glutamine and antibiotics. The human melanoma cell lines MEWO and WM115 were maintained in RPMI supplemented with 10% FBS and antibiotics. Primary mouse melanocytes were cultured in F-12 media supplemented with 10% FBS, antibiotics, IBMX (isobuthyl-methylxantine), bovine pituitary extract, and TPA.
(§2) Mitochondrial activity and apoptosis. Cells were exposed to the chemicals for 12-48 hours as indicated in Results. To measure changes in mitochondrial activity reflective of general cell viability, the ATPLITE ATP detection assay was used according to the manufacturer's recommendations (Perkin Elmer). Apoptosis analysis was performed by flow cytometry of PI-stained cells. The percentage of cells to the left of the diploid G0/1 peak, characteristic of hypodiploid cells that have partially lost DNA, was calculated as percentage of apoptotic cells (Bhoumik et al., PNAS 101:4222-7, 2004). Analysis of changes in Caspase 8 expression pattern was performed using immunoblot analysis.
The effects of CSL and AIGA on the human melanoma cell lines WM115 and MEWO were assessed. […]

Another data set deals with WM115 cells. Kind of data set: WM115 melanoma cell viability. It is filed as cell-based, human. The settings on record: WM115 cells. The protocol: as §1, §2
The effects of CSL and AIGA on the human melanoma cell lines WM115 and MEWO were assessed. AIGA reduced the viability of the human melanoma cultures when added at a concentration of 0.5-2 μM (FIG. 5a and FIG. 5c) whereas CSL reduced their viability at a concentration of 0.1 μM-2 μM in WM115 cells (FIG. 5b) and 0.05 μM-2 μM in MeWO cells (FIG. 5d).

Data set [1] has as its system Human melanoma LU1205 cells. Description: LU1205 lung metastasis in nude mice. It is filed as in vivo, mouse. As to conditions: compound every second day, analysis 60 days after injection. The protocol: (§3) Tumor growth and metastasis in vivo. GFP-expressing SW1 cells were trypsinized, resuspended in PBS, and injected subcutaneously (1×10^6) into the lower flank of 6 to 7-week-old mice. When tumors reached a size of about 50 mm^3, the indicated compounds (100 μL of the vehicle—10% DMSO, 70% Cremophor/ethanol (3:1), and 20% PBS and 1.0 mg/kg of celastrol or 0.5 mg/kg of the derivatives CA16, CA19) were injected i.p. every alternate day. Body weight and tumor growth were monitored every 2 days. GFP-expressing SW1 tumors were monitored in vivo on shaved mice with a light box illuminated by blue light fiber optics (Lightools Research; Encinitas, Calif.), and imaging was carried out with a digital camera (Nikon D100). Tumors were measured for up to 3 weeks. For metastases studies, LU1205 cells (1×10^6) were injected i.v. into the lateral tail vein of nude mice. At the end of the experiment, the lungs and tumors were excised and weighed. To detect metastatic lesions, lungs were fixed in formalin, embedded in paraffin and subjected to hematoxylin and eosin staining.
The effect of CSL and CSL derivatives, CA16 and CA19, on the metastatic capacity of melanoma cells was then determined. Human melanoma LU1205 cells were injected into the tail vein of nude mice, followed by administration of the compounds every second day. This approach allows monitoring of changes in the number of lesions formed on the lungs, a primary organ for tumor cell growth under this experimental approach. Analysis performed 60 days following injection determined changes in the number and size of metastatic lesions in each of the experimental groups.

In another data set the test system is Mdm2 and p53. Description: Stability of short-lived proteins. It counts as cell-based. The settings on record: 0.3-1 μM, data not shown. An excerpt: CSL was also shown to inhibit NF-κB activation through the inhibition of IKB kinase and TAK1 activities. […] Thus, it is likely that the ability of CSL to attenuate NF-κB activity would result in increased JNK activity, which is consistent the findings herein. It is the increase in JNK activity, and consequently of its substrate c-Jun, in concert with inhibition of ATF2 activities that brings about the potent cytotoxic effects of both CSL and AIGA on melanoma cells, similar to what was previously shown for the ATF2 peptides.

The next data set relates to SW1 tumors. Kind of data set: SW1 tumor growth in syngeneic C3H mice. It counts as in vivo, mouse. The settings on record: 1 mg/kg i.p. every second day for 24 days. As to the method: as §3
(§4) To assess the ability of CSL and CSL derivatives to affect the tumorigenicity and metastasis of melanoma, the mouse SW1 cell lines were used in syngeneic models. Injection of SW1 melanoma cells subcutaneously into C3H mice was followed by daily injections of CSL intraperitoneally (IP). […] Briefly, SW1 cells that stably express GFP were injected s.c into C3H mice. When the tumor reached the size of 50 mm^3, the vehicle, CSL (1 mg/kg), CA16 (0.5 mg/kg) or CA19 (0.5 mg/kg) were administered i.p, every second day for a period of 24 days. Tumor size was measured at the indicated times. Data presented in FIG. 6b represents two experiments.

Data set [2] can be described thus: Tolerability of administration to mice. The settings on record: daily administration, doses up to 1 mg/kg. It counts as in vivo, mouse. As to the method:
as §4

For the next data set, the system named is SW1 mouse melanoma. Description: SW1 metastatic lesions in syngeneic C3H mice. It counts as in vivo. The settings on record: SW1 cells s.c. in C3H mice. As to the method:
as §3
To further assess the impact of these compounds on the development of metastatic lesions, the SW1 mouse melanoma model using the syngeneic C3H strain was employed. Subcutaneous injection of SW1 cells results in tumor formation at the site of injection followed by metastasis to different sites within 6-8 weeks.

In the case of `CC(=O)Oc1c2c(c(CC=C(C)C)c3c1C(=O)C1=C[C@@H]4CC5C(C)(C)OC(C/C=C(\C)C(=O)O)(C4=O)[C@@]15O3)OC(C)(CCC=C(C)C)C=C2` (stereo partly shown) [AIGA, Acetyl isogambogic acid], the “concentration at which viability was reduced” value in the data set on MeWO cells and in the data set with WM115 cells was 0.5 to 2 µM in each case.

On to `CC1=C(O)C(=O)C=C2C1=CC=C1[C@@]2(C)CC[C@@]2(C)[C@@H]3C[C@](C)(C(=O)O)CC[C@]3(C)CC[C@]12C` [Celastrol], for which the “growth of large, medium and small sized lesions in the lungs” value in data set [1] is “efficient in inhibiting growth of large medium and small sized lesions in the lungs”. Moreover, the “stability of short-lived proteins, including Mdm2 and p53” value in the data set on Mdm2 and p53 was “did not affect”. Also, the “reduction of tumor growth” value with SW1 tumors came out at 5 fold. For the same molecule, the “toxicity or discomfort in mice” value in data set [2] was “did not result in toxicity or any noticeable discomfort”. Further, in the data set on SW1 mouse melanoma, the metastatic lesions result was “potently exhibit the ability to inhibit large as well as small metastatic lesions, with the exception of the 1-2 mm range”.
